Measured values reported in patent publication US20230065953A1, “NOVEL HETEROARYL-TRIAZOLE COMPOUNDS AS PESTICIDES” (Bayer Aktiengesellschaft, priority 2019, published 2023).

Tests used:
Type in all cases: in vivo
[1] = tested on: adult engorged female ticks (Rhipicephalus microplus); experiment: Rhipicephalus (Boophilus) microplus injection test; settings: 168 h, 4 μg/animal, egg deposition after 7 days, read-out: efficacy (infertile eggs)
Protocol: Rhipicephalus (Boophilus) Microplus—Injection Test
(§1) Solvent: dimethyl sulfoxide
To produce a suitable preparation of active compound, 10 mg of active compound are dissolved in 0.5 mL solvent, and the concentrate is diluted with solvent to the desired concentration.
Five adult engorged female ticks (Rhipicephalus microplus) are injected with 1 μL compound solution into the abdomen. The ticks are transferred into replica plates and incubated in a climate chamber.
After 7 days egg deposition of fertile eggs is monitored. Eggs where fertility is not visible are stored in a climate chamber till hatching after about 42 days. An efficacy of 100% means all eggs are infertile; 0% means all eggs are fertile.

[2] = tested on: fall armyworm larvae (Spodoptera frugiperda); experiment: Spodoptera frugiperda spray test (maize leaf sections); settings: 168 h
Protocol: Spodoptera frugiperda—Spray Test • Solvent: 78.0 parts by weight acetone • 1.5 parts by weight dimethylformamide • Emulsifier: alkylarylpolyglycol ether
(§2) To produce a suitable preparation of active compound, 1 part by weight of active compound is mixed with the stated amount of solvents and is diluted with water, containing an emulsifier concentration of 1000 ppm, to the desired concentration. Further test concentrations are prepared by dilution with emulsifier containing water.
Maize (Zea mays) leaf sections are sprayed with a preparation of the active ingredient of the desired concentration. Once dry, the leaf sections are infested with fall armyworm larvae (Spodoptera frugiperda).
After 7 days mortality in % is determined. 100% means all caterpillars have been killed and 0% means none of the caterpillars have been killed.

[3] = tested on: Rhipicephalus microplus larvae (strain Parkhurst, resistant against synthetic pyrethroids); experiment: Rhipicephalus (Boophilus) microplus in-vitro contact test, larval cattle tick; settings: 5 μg/cm^2 (=500 g/ha), after 48 hours, read-out: efficacy (larvae dead or moribund)
Protocol: Rhipicephalus (Boophilus) Microplus—In-Vitro Contact Tests Larval Cattle Tick (Strain Parkhurst, Resistant Against Synthetic Pyrethroids)
(§3) 9 mg compound is solved in 1 mL acetone and diluted with acetone to the desired concentration. 250 μL of the test solution is filled in 25 mL glass test tubes and homogeneously distributed on the inner walls by rotation and tilting on a shaking device (2 h at 30 rpm). With a compound concentration of 900 ppm, an inner surface of 44.7 cm^2 and a homogeneous distribution, a dose of 5 μg/cm^2 is achieved.
After the solvent has evaporated, each test tube is filled with 20-50 cattle tick larvae (Rhipicephalus microplus), closed with a perforated lid and incubated in a horizontal position at 85% relative humidity and 27° C. in an incubator. After 48 hours efficacy is determined. The larvae are patted on the ground of the tubes and negative geotactic behavior is recorded.
An efficacy of 100% means all larvae are dead or moribund; 0% means no larvae are dead or moribund.

[4] = tested on: adult unfed cat fleas (Ctenocephalides felis); experiment: Ctenocephalides felis oral test; settings: 48 h
Protocol: Ctenocephalides felis—Oral Test
as §1
To produce a suitable preparation of active compound, 10 mg of active compound are dissolved in 0.5 mL solvent, and the concentrate is diluted with cattle blood to the desired concentration.
Approximately 20 adult unfed cat fleas (Ctenocephalides felis) are placed in flea chambers. The blood chamber, sealed with parafilm on the bottom, are filled with cattle blood supplied with compound solution and placed on the gauze covered top of the flea chamber, so that the fleas are able to suck the blood. The blood chamber is heated to 37° C. whereas the flea chamber is kept at room temperature.
After 2 days mortality in % is determined. 100% means all the fleas have been killed; 0% means none of the fleas have been killed.

[5] = tested on: larvae of the banded cucumber beetle (Diabrotica balteata); experiment: Diabrotica balteata spray test; settings: 168 h, 100 g/ha (=32 μg/well), wheat seeds, after 7 days, read-out: efficacy (seedling growth)
Protocol: Diabrotica Balteata—Spray Test
• Solvent: 78.0 parts by weight of acetone • 1.5 parts by weight of dimethylformamide • Emulsifier: alkylarylpolyglycol ether
Further test concentrations are prepared by dilution with emulsifier containing water.
Soaked wheat seeds (Triticum aestivum) are placed in a multiple well plate filled with agar and some water and are incubated for 1 day to germinate (5 seeds per well). The germinated wheat seeds are sprayed with a test solution containing the desired concentration of the active ingredient. Afterwards each unit is infected with 10-20 larvae of the banded cucumber beetle (Diabrotica balteata).
After 7 days efficacy in % is determined.

[6] = tested on: green peach aphid (Myzus persicae); experiment: Myzus persicae oral test; settings: 120 h
Protocol: Myzus persicae—oral test • Solvent: 100 parts by weight acetone
To produce a suitable preparation of active compound, 1 part by weight of active compound is mixed with the stated amount of solvent, and the concentrate is diluted with water to the desired concentration. 50 μL compound solution is filled in microtiter plates and 150 μL IPL41 insect medium (33%+15% sugar) is added to obtain a total volume of 200 μL per well. Afterwards the plates are sealed with parafilm through which a mixed population of the green peach aphid (Myzus persicae) can suck on the compound preparation.
(§4) After 5 days mortality in % is determined. 100% means all aphids have been killed and 0% means none of the aphids have been killed.

[7] = tested on: green peach aphid (Myzus persicae); experiment: Myzus persicae spray test; settings: foliar, 120 h, Chinese cabbage leaf disks, after 5 days
Protocol: Myzus persicae—Spray Test • Solvent: 78.0 parts by weight acetone • 1.5 parts by weight dimethylformamide • Emulsifier: alkylarylpolyglycol ether
as §2
Chinese cabbage (Brassica pekinensis) leaf disks infected with all instars of the green peach aphid (Myzus persicae), are sprayed with a preparation of the active ingredient of the desired concentration.
as §4

[8] = tested on: adult flies Musca domestica strain WHO-N; experiment: Musca domestica test (MUSCDO surface treatment & contact assay); settings: surface concentration 20 mg/m^2, 30 min exposure, 24 hours after contact, read-out: efficacy (mortality)
Protocol: Musca domestica Test (MUSCDO Surface Treatment & Contact Assay) • Solvent: Aceton+2000 ppm rapeseed oil methyl ester (RME)
In order to produce a sufficient, active ingredient containing solution it is necessary to solve the test compound in the solvent-mix (acetone at 2 mg/ml/RME 2000 ppm). This solution is pipetted onto a glazed tile and after evaporation of the acetone, adult flies of the species Musca domestica strain WHO-N are placed onto the dried surface. The exposure time is 30 minutes.
Mortality in percent (%) is determined 24 hours after contact of the insects to the treated surface. 100% mortality means that all tested insects are dead, whereas 0% means that no insect died.

[9] = tested on: adult cat fleas (Ctenocephalides felis); experiment: Ctenocephalides felis in-vitro contact test, adult cat flea; settings: 5 μg/cm^2 (=500 g/ha), after 48 hours
Protocol: Ctenocephalides felis—In-Vitro Contact Tests Adult Cat Flea
as §3
After the solvent has evaporated, each test tube is filled with 5-10 adult cat fleas (Ctenocephalides felis), closed with a perforated lid and incubated in a lying position at room temperature and relative humidity. After 48 hours efficacy is determined. The fleas are patted on the ground of the tubes and are incubated on a heating plate at 45-50° C. for at most 5 minutes. Immotile or uncoordinated moving fleas, which are not able to escape the heat by climbing upwards, are marked as dead or moribund.
An efficacy of 100% means all fleas are dead or moribund; 0% means no fleas are dead or moribund.

[10] = tested on: larvae of the southern green stink bug (Nezara viridula); experiment: Nezara viridula spray test; settings: in Hordeum vulgare, 96 h
Protocol: Nezara viridula—Spray Test • Solvent: 78.0 parts by weight of acetone • 1.5 parts by weight of dimethylformamide • Emulsifier: alkylarylpolyglycol ether
as §2, with “solvent,” for “solvents”, “and the concentrate” for “and”
Barley plants (Hordeum vulgare) are sprayed with a test solution containing the desired concentration of the active ingredient and are infested with larvae of the southern green stink bug (Nezara viridula).
After 4 days mortality in % is determined. 100% means all the stink bugs have been killed; 0% means none of the stink bugs have been killed.

Cc1nc([C@H](C)NC(=O)c2cc(C#N)cc(C(F)(F)F)c2)n(-c2ncc(C#N)s2)n1 [I-16]
pest or weed control at 0.004 mg [1]: 100%
mortality at 100 g/ha [2]: 100%
pest or weed control at 5 µg/cm2 [3]: 100%
mortality at 100 ppm [4]: 100%
pest or weed control at 32 µg/disc, 100 g/ha [5]: 100%

CC(NC(=O)c1cc(Br)cc(Br)c1)c1ncnn1-c1ncc(C#N)s1 (stereo not drawn) [I-27]
pest or weed control at 0.004 mg [1]: 100%
mortality at 100 ppm [4]: 100%
pest or weed control at 32 µg/disc, 100 g/ha [5]: 100%

CC(NC(=O)c1cc(Br)cc(I)c1)c1ncnn1-c1ncc(C#N)s1 (stereo not drawn) [I-29]
pest or weed control at 0.004 mg [1]: 100%
pest or weed control at 5 µg/cm2 [3]: 90%
mortality at 100 ppm [4]: 100%

CC(NC(=O)c1cc(Cl)cc(S(F)(F)(F)(F)F)c1)c1ncnn1-c1ncc(C#N)s1 (stereo not drawn) [I-32]
pest or weed control at 0.004 mg [1]: 100%
mortality at 100 g/ha [2]: 100%
pest or weed control at 5 µg/cm2 [3]: 90%
mortality at 100 ppm [4]: 100%
pest or weed control at 32 µg/disc, 100 g/ha [5]: 100%

CC(NC(=O)c1cc(OC(F)F)cc(C(F)F)c1)c1ncnn1-c1ncc(C#N)s1 (stereo not drawn) [I-34]
pest or weed control at 0.004 mg [1]: 100%
mortality at 100 g/ha [2]: 100%
pest or weed control at 5 µg/cm2 [3]: 90%
mortality at 4 ppm [6]: 100%
mortality at 100 ppm [4]: 100%
pest or weed control at 32 µg/disc, 100 g/ha [5]: 100%

CC(NC(=O)c1cc(OC(F)F)cc(C2CC2)c1)c1ncnn1-c1ncc(C#N)s1 (stereo not drawn) [I-35]
pest or weed control at 0.004 mg [1]: 100%
mortality at 100 g/ha [2]: 100%
pest or weed control at 5 µg/cm2 [3]: 100%
mortality at 4 ppm [6]: 100%
mortality at 100 ppm [4]: 100%
pest or weed control at 32 µg/disc, 100 g/ha [5]: 100%
mortality at 100 g/ha [7]: 90%

C[C@H](NC(=O)c1cc(Cl)cc(S(C)(=O)=O)c1)c1nc(C2CC2)nn1-c1ncc(C#N)s1 [I-40, 3-chloro-N-{(1S)-1-[1-(5-cyano-1,3-thiazol-2-yl)-3-cyclopropyl-1H-1,2,4-triazol-5-yl]ethyl}-5-(methylsulfonyl)benzamide]
mortality at 100 g/ha [2]: 100%
mortality at 4 ppm [6]: 90%
pest or weed control at 32 µg/disc, 100 g/ha [5]: 80%

C[C@H](NC(=O)c1cc(Cl)cc(S(=O)(=O)C2CC2)c1)c1nc(C2CC2)nn1-c1ncc(C#N)s1 [I-42]
mortality at 100 g/ha [2]: 100%
mortality at 4 ppm [6]: 100%
pest or weed control at 32 µg/disc, 100 g/ha [5]: 100%

C[C@H](NC(=O)c1cc(Cl)cc(Br)c1)c1ncnn1-c1ncc(C#N)s1 [I-59]
mortality at 100 g/ha [2]: 100%
mortality at 20 mg/m2 [8]: 80 to 100%
pest or weed control at 32 µg/disc, 100 g/ha [5]: 100%

Cc1nc([C@H](C)NC(=O)c2cc(Cl)cc(C(F)(F)F)c2)n(-c2ncc(C(=O)NC3CC3)s2)n1 [I-66]
pest or weed control at 0.004 mg [1]: 100%
mortality at 100 g/ha [2]: 100%
pest or weed control at 5 µg/cm2 [3]: 100%
mortality at 4 ppm [6]: 100%
pest or weed control at 32 µg/disc, 100 g/ha [5]: 100%
mortality at 100 g/ha [7]: 90%

Cc1nc([C@H](C)NC(=O)c2cc(Cl)cc(C(F)(F)F)c2)n(-c2ncc(C(=O)NCC3CC3)s2)n1 [I-67]
pest or weed control at 0.004 mg [1]: 100%
mortality at 100 g/ha [2]: 100%
pest or weed control at 5 µg/cm2 [3]: 100%
mortality at 4 ppm [6]: 100%
pest or weed control at 32 µg/disc, 100 g/ha [5]: 100%

Cc1nc([C@H](C)NC(=O)c2cc(Br)cc(C#N)c2)n(-c2ncc(C(=O)N(C)C)s2)n1 [I-70]
efficacy (fleas dead or moribund) [9]: 100%
pest or weed control at 5 µg/cm2 [3]: 70%

Cc1nc([C@H](C)NC(=O)c2cc(Br)cc(Br)c2)n(-c2ncc(C(=O)N(C)C)s2)n1 [I-71]
efficacy (fleas dead or moribund) [9]: 100%
pest or weed control at 5 µg/cm2 [3]: 100%
pest or weed control at 32 µg/disc, 100 g/ha [5]: 100%

Cc1nc([C@H](C)NC(=O)c2cncc(C(F)(F)F)c2)n(-c2ncc(C(=O)N(C)CC#N)s2)n1 [I-73]
pest or weed control at 5 µg/cm2 [3]: 100%
mortality at 4 ppm [6]: 100%
mortality at 100 g/ha [7]: 90%

Cc1nc([C@H](C)NC(=O)c2cc(Cl)cc(S(=O)(=O)C3CC3)c2)n(-c2ncc(C(=O)N(C)CC#N)s2)n1 [I-74]
mortality at 4 ppm [6]: 100%
mortality at 100 g/ha [7]: 90%

Cc1nc([C@H](C)NC(=O)c2cc(Cl)cc(S(C)(=O)=O)c2)n(-c2ncc(C(=O)N(C)C)s2)n1 [I-78]
mortality at 4 ppm [6]: 100%

Cc1nc([C@H](C)NC(=O)c2cc(Cl)cc(S(C)(=O)=O)c2)n(-c2ncc(C(=O)N(C)CC#N)s2)n1 [I-79]
mortality at 4 ppm [6]: 100%

Cc1nc([C@H](C)NC(=O)c2cc(Cl)cc(I)c2)n(-c2ncc(C(=O)N(C)CC#N)s2)n1 [I-81]
mortality at 100 g/ha [2]: 100%
pest or weed control at 5 µg/cm2 [3]: 100%
mortality at 4 ppm [6]: 100%
pest or weed control at 32 µg/disc, 100 g/ha [5]: 100%

Cc1nc([C@H](C)NC(=O)c2cc(C(F)(F)F)cc(S(C)(=O)=O)c2)n(-c2ncc(C(=O)N(C)CC#N)s2)n1 [I-84]
pest or weed control at 0.004 mg [1]: 100%
pest or weed control at 5 µg/cm2 [3]: 80%
mortality at 4 ppm [6]: 100%
mortality at 100 ppm [4]: 100%
mortality at 100 g/ha [10]: 100%
pest or weed control at 32 µg/disc, 100 g/ha [5]: 100%

C[C@H](NC(=O)c1cc(C(F)(F)F)cc(S(C)(=O)=O)c1)c1nc(C2CC2)nn1-c1ncc(C#N)s1 [I-103]
mortality at 100 g/ha [2]: 100%
mortality at 20 mg/m2 [8]: 80 to 100%
mortality at 500 g/ha [10]: 90%
pest or weed control at 32 µg/disc, 100 g/ha [5]: 100%
